{"source": "ChEMBL document CHEMBL2346525", "about": "“Diastereotopic and deuterium effects in gemini” (J Med Chem, 2013)", "organism": "Homo sapiens", "assay": "Cytotoxicity against human ER negative MCF10CA1a cells assessed as growth inhibition after 3 days by [3H]thymidine incorporation assay", "type": "functional, cell-based", "conditions": "tested as the 2H-labelled form", "note": "The source made the active and inactive calls. The rule behind the calls is not given here."}
{"smiles": "C=C1/C(=C\\C=C2/CCC[C@]3(C)[C@@H](C(CCCC(C)(C)O)CCCC(C)(C)O)CC[C@@H]23)C[C@@H](O)C[C@@H]1O", "values": [{"measurement": "growth inhibition (GI)", "value": "Active"}]}
{"smiles": "CC(C)(O)CCCC(CCCC(C)(C)O)[C@H]1CC[C@H]2/C(=C/C=C3C[C@@H](O)C[C@H](O)C3)CCC[C@]12C", "values": [{"measurement": "growth inhibition (GI)", "value": "Active"}]}
